Data from paper PMC6979384, “Characterization of the plant homeodomain (PHD) reader family for their histone tail interactions” (Epigenetics & Chromatin, 2020).
Where no end group is shown, it is not given here. [ ]: non-standard residue; d: D form. Lys(Me3) = C[N+](C)(C)CCCC[C@H](N)C(=O)O

What was measured:
Assay in all cases: Histone peptide microarray
Assay type in all cases: binding, human
[1] = tested on: CHD4 (PPCC)
Description: (§1) To more comprehensively define the histone interactions of the 31 PHD readers identified from the domain microarray analyses, we probed each on an alternate microarray platform containing a library of 293 synthetic histone peptides with single or combinatorial PTMs (Additional file 2: Figure S4 and Additional file 3: Table S2).
(§2) The 31 GST-tagged PHD readers identified in the PHD finger domain array were expressed and purified as previously. Histone peptide arrays and peptide pulldown assays were conducted as recently described (specifically, the optimized protocol from Petell et al. for the former).
(§3) Supplementary file 13072_2020_328_MOESM3_ESM.xlsx: Additional file 3: Table S2. […] Excel Tab Peptide List is a compiled list of the entire 293 histone peptide library with amino acid sequence ranges. […] Each number corresponds to the peptide number designated in Peptide List. Excel Tab Average Signals is a compiled set of binding data: chromatin reader at 0.5 μM vs. entire 293 peptide library. Data is presented as the average and standard deviation of 4 replicates. The average signals are colored to indicate signal intensity with green being strong and white being weak/low. […] Key: red= stronger relative binding; blue = weaker relative binding. Excel Tab Array info summary is a table summarizing the domains, sequence coverage, array signal range, and noise for each of the GST-tagged readers assayed on the peptide microarrays.

[2] = tested on: DIDO1
Description: as §1, §2, §3

[3] = tested on: AIRE (PP)
Description: as §1, §2, §3

[4] = tested on: RAG2
Description: as §1, §2, §3

[5] = tested on: TAF3
Description: as §1, §2, §3

[6] = tested on: PHRF1 (RP)
Description: as §1, §2, §3

[7] = tested on: PHF8
Description: as §1, §2, §3

[8] = tested on: ING2
Description: as §1, §2, §3

[9] = tested on: KDM5B (3)
Description: as §1, §2, §3

[10] = tested on: KDM5A (1)
Description: as §1, §2, §3

[11] = tested on: MLL5
Description: as §1, §2, §3

[12] = tested on: SP140L
Description: as §1, §2, §3

[13] = tested on: BPTF (PB)
Description: as §1, §2, §3

[14] = tested on: ING1
Description: as §1, §2, §3

[15] = tested on: CHD5 (PCC)
Description: as §1, §2, §3

[16] = tested on: KDM5B (1)
Description: as §1, §2, §3

[17] = tested on: ING3
Description: as §1, §2, §3

[18] = tested on: MORC3 (CW)
Description: as §1, §2, §3

[19] = tested on: KDM7A
Description: as §1, §2, §3

[20] = tested on: DPF2 (PPC2W2)
Description: as §1, §2, §3

[21] = tested on: CHD5 (PPCC)
Description: as §1, §2, §3

[22] = tested on: PHF21A
Description: as §1, §2, §3

[23] = tested on: ING5
Description: as §1, §2, §3

[24] = tested on: KDM4C (TTP)
Description: as §1, §2, §3

[25] = tested on: PHF23
Description: as §1, §2, §3

[26] = tested on: ING4
Description: as §1, §2, §3

[27] = tested on: KDM5A (3)
Description: as §1, §2, §3

[28] = tested on: BAZ2B
Description: as §1, §2, §3

[29] = tested on: PHF13
Description: as §1, §2, §3

[30] = tested on: TRIM66 (PB)
Description: as §1, §2, §3

[31] = tested on: PHF2
Description: as §1, §2, §3

[32] = sheet "Array Heatmap", GST-tagged reader, histone peptide array, total n = 4

## H4K5ac + K8ac: H4 1-23
[1]; CHD4 (PPCC), GST-tagged, arrays performed twice, n of 4
  Array Heatmap value (peptide array binding signal): 0.551
[2]; DIDO1, GST-tagged, arrays performed twice, n of 4
  Array Heatmap value (peptide array binding signal): 0.6312
[3]; AIRE (PP), GST-tagged, arrays performed twice, n of 4
  Array Heatmap value (peptide array binding signal): 0.5662
[4]; RAG2, GST-tagged, arrays performed twice, n of 4
  Array Heatmap value (peptide array binding signal): 0.2557
[5]; TAF3, GST-tagged, arrays performed twice, n of 4
  Array Heatmap value (peptide array binding signal): 0.2841
[6]; PHRF1 (RP), GST-tagged, arrays performed twice, n of 4
  Array Heatmap value (peptide array binding signal): 0.424
[7]; PHF8, GST-tagged, arrays performed twice, n of 4
  Array Heatmap value (peptide array binding signal): 0.3992
[8]; ING2, GST-tagged, arrays performed twice, n of 4
  Array Heatmap value (peptide array binding signal): 0.5873
[9]; KDM5B (3), GST-tagged, arrays performed twice, n of 4
  Array Heatmap value (peptide array binding signal): 0.5165
[10]; KDM5A (1), GST-tagged, arrays performed twice, n of 4
  Array Heatmap value (peptide array binding signal): 0.4957
[11]; MLL5, GST-tagged, arrays performed twice, n of 4
  Array Heatmap value (peptide array binding signal): 0.528
[12]; SP140L, GST-tagged, arrays performed twice, n of 4
  Array Heatmap value (peptide array binding signal): 0.3819
[13]; BPTF (PB), GST-tagged, arrays performed twice, n of 4
  Array Heatmap value (peptide array binding signal): 0.3517
[14]; ING1, GST-tagged, arrays performed twice, n of 4
  Array Heatmap value (peptide array binding signal): 0.5183
[15]; CHD5 (PCC), GST-tagged, arrays performed twice, n of 4
  Array Heatmap value (peptide array binding signal): 0.8034
[16]; KDM5B (1), GST-tagged, arrays performed twice, n of 4
  Array Heatmap value (peptide array binding signal): 0.6318
[17]; ING3, GST-tagged, arrays performed twice, n of 4
  Array Heatmap value (peptide array binding signal): 0.4856
[18]; MORC3 (CW), GST-tagged, arrays performed twice, n of 4
  Array Heatmap value (peptide array binding signal): 0.3673
[19]; KDM7A, GST-tagged, arrays performed twice, n of 4
  Array Heatmap value (peptide array binding signal): 0.4235
[20]; DPF2 (PPC2W2), GST-tagged, arrays performed twice, n of 4
  Array Heatmap value (peptide array binding signal): 0.6807
[21]; CHD5 (PPCC), GST-tagged, arrays performed twice, n of 4
  Array Heatmap value (peptide array binding signal): 0.5854
[22]; PHF21A, GST-tagged, arrays performed twice, n of 4
  Array Heatmap value (peptide array binding signal): 0.4994
[23]; ING5, GST-tagged, arrays performed twice, n of 4
  Array Heatmap value (peptide array binding signal): 0.3695
[24]; KDM4C (TTP), GST-tagged, arrays performed twice, n of 4
  Array Heatmap value (peptide array binding signal): 0.5523
[25]; PHF23, GST-tagged, arrays performed twice, n of 4
  Array Heatmap value (peptide array binding signal): 0.5198
[26]; ING4, GST-tagged, arrays performed twice, n of 4
  Array Heatmap value (peptide array binding signal): 0.4756
[27]; KDM5A (3), GST-tagged, arrays performed twice, n of 4
  Array Heatmap value (peptide array binding signal): 0.4472
[28]; BAZ2B, GST-tagged, arrays performed twice, n of 4
  Array Heatmap value (peptide array binding signal): 0.4714
[29]; PHF13, GST-tagged, arrays performed twice, n of 4
  Array Heatmap value (peptide array binding signal): 0.6182
[30]; TRIM66 (PB), GST-tagged, arrays performed twice, n of 4
  Array Heatmap value (peptide array binding signal): 0.5724
[31]; PHF2, GST-tagged, arrays performed twice, n of 4
  Array Heatmap value (peptide array binding signal): 0.4759

## H3K79me3: H3 74-84 (IAQDF[Lys(Me3)]TDLRF; UniProt P68431 75-85, looked up, fragment) [Peptide H3K79me3]
[1]; [32]
  Array Heatmap signal, CHD4 (PPCC): 0.5886
[2]; [32]
  Array Heatmap signal, DIDO1: 0.7358
[3]; [32]
  Array Heatmap signal, AIRE (PP): 0.4525
[4]; [32]
  Array Heatmap signal, RAG2: 0.2475
[5]; [32]
  Array Heatmap signal, TAF3: 0.2594
[6]; [32]
  Array Heatmap signal, PHRF1 (RP): 0.4811
[7]; [32]
  Array Heatmap signal, PHF8: 0.3681
[8]; [32]
  Array Heatmap signal, ING2: 0.6086
[9]; [32]
  Array Heatmap signal, KDM5B (3): 0.4402
[10]; [32]
  Array Heatmap signal, KDM5A (1): 0.4539
[11]; [32]
  Array Heatmap signal, MLL5: 0.5385
[12]; [32]
  Array Heatmap signal, SP140L: 0.3582
[13]; [32]
  Array Heatmap signal, BPTF (PB): 0.3567
[14]; [32]
  Array Heatmap signal, ING1: 0.5877
[15]; [32]
  Array Heatmap signal, CHD5 (PCC): 0.767
[16]; [32]
  Array Heatmap signal, KDM5B (1): 0.6382
[17]; [32]
  Array Heatmap signal, ING3: 0.4762
[18]; [32]
  Array Heatmap signal, MORC3 (CW): 0.3856
[19]; [32]
  Array Heatmap signal, KDM7A: 0.3373
[20]; [32]
  Array Heatmap signal, DPF2 (PPC2W2): 0.6998
[21]; [32]
  Array Heatmap signal, CHD5 (PPCC): 0.5544
[22]; [32]
  Array Heatmap signal, PHF21A: 0.4782
[23]; [32]
  Array Heatmap signal, ING5: 0.3656
[24]; [32]
  Array Heatmap signal, KDM4C (TTP): 0.4877
[25]; [32]
  Array Heatmap signal, PHF23: 0.5318
[26]; [32]
  Array Heatmap signal, ING4: 0.4605
[27]; [32]
  Array Heatmap signal, KDM5A (3): 0.4757
[28]; [32]
  Array Heatmap signal, BAZ2B: 0.458
[29]; [32]
  Array Heatmap signal, PHF13: 0.6042
[30]; [32]
  Array Heatmap signal, TRIM66 (PB): 0.557
[31]; [32]
  Array Heatmap signal, PHF2: 0.5812
